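Tested at 5 concentrations; 48 h exposure; 96-well plates; endpoints linearly interpolated, else capped at highest concentration. GI50 is the concentration that inhibits growth by half.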 Calls of active or inactive are those of the source. No stated cut-off is given here; in the data, active = GI50 up to about 1.1 µM and inactive = higher.
Tests used:
Assay in all cases: DTP human tumour cell line panel, 48 h
786-0 = tested on: 786-0
A549 = tested on: A549
ACHN = tested on: ACHN
DU-145 = tested on: DU-145
HL-60 = tested on: HL-60
HOP-92 = tested on: HOP-92
K562 = tested on: K562
MDA-MB-435 = tested on: MDA-MB-435
MDA-N = tested on: MDA-N
Malme-3M = tested on: Malme-3M
NCI-H226 = tested on: NCI-H226
NCI/ADR-RES = tested on: NCI/ADR-RES
SF-539 = tested on: SF-539
SK-MEL-28 = tested on: SK-MEL-28
SK-MEL-5 = tested on: SK-MEL-5
SK-OV-3 = tested on: SK-OV-3
SN12C = tested on: SN12C
SNB-19 = tested on: SNB-19
SNB-75 = tested on: SNB-75
UACC-62 = tested on: UACC-62

| Structure (SMILES) | GI50 (786-0) | GI50 (A549) | GI50 (ACHN) | GI50 (DU-145) | GI50 (HL-60) | GI50 (HOP-92) | GI50 (K562) | GI50 (MDA-MB-435) | GI50 (MDA-N) | GI50 (Malme-3M) | GI50 (NCI-H226) | GI50 (NCI/ADR-RES) | GI50 (SF-539) | GI50 (SK-MEL-28) | GI50 (SK-MEL-5) | GI50 (SK-OV-3) | GI50 (SN12C) | GI50 (SNB-19) | GI50 (SNB-75) | GI50 (UACC-62) |
| --- | --- | --- | --- | --- | --- | --- | --- | --- | --- | --- | --- | --- | --- | --- | --- | --- | --- | --- | --- | --- |
| NS(=O)(=O)c1ccc(NNc2c3ccccc3nc3c(C(=O)Nc4ccc(S(=O)(=O)Nc5ncccn5)cc4)cccc23)cc1 | > 25 µM (inactive) | > 25 µM (inactive) | > 25 µM (inactive) | > 25 µM (inactive) | > 25 µM (inactive) | > 25 µM (inactive) | > 25 µM (inactive) | > 25 µM (inactive) | > 25 µM (inactive) | > 25 µM (inactive) | > 25 µM (inactive) | > 25 µM (inactive) | > 25 µM (inactive) | 10.1 µM (inactive) | > 25 µM (inactive) | > 25 µM (inactive) | > 25 µM (inactive) | > 25 µM (inactive) | 20.2 µM (inactive) | > 25 µM (inactive) |
| CO[C@H]1C=CO[C@@]2(C)Oc3c(C)c(O)c4c(O)c(c(CN5CCN(C)CC5)c(O)c4c3C2=O)NC(=O)/C(C)=C\C=C[C@H](C)[C@H](O)C(C)[C@@H](O)C(C)[C@H](OC(C)=O)[C@@H]1C (stereo not given in full) | 21.3 µM (inactive) | 39.7 µM (inactive) | > 75.3 µM (inactive) | 34.8 µM (inactive) | 23.1 µM (inactive) | 71.4 µM (inactive) | 20.9 µM (inactive) | 27.5 µM (inactive) | 44.3 µM (inactive) | 40.6 µM (inactive) | > 63.5 µM (inactive) | > 100 µM (inactive) | 24.8 µM (inactive) | 90.4 µM (inactive) | 24.3 µM (inactive) | > 100 µM (inactive) | 30.3 µM (inactive) | > 100 µM (inactive) | 72.9 µM (inactive) | 34.6 µM (inactive) |
| NCCC1([N+](=O)[O-])C=CN=CC1 (stereo not given) | > 100 µM (inactive) | > 100 µM (inactive) | > 100 µM (inactive) | > 100 µM (inactive) | > 100 µM (inactive) | < 0.01 µM (active) | > 100 µM (inactive) | > 100 µM (inactive) | > 100 µM (inactive) | > 100 µM (inactive) | > 100 µM (inactive) | > 100 µM (inactive) | > 100 µM (inactive) | > 100 µM (inactive) | > 100 µM (inactive) | > 100 µM (inactive) | > 100 µM (inactive) | > 100 µM (inactive) | 6.98 µM (inactive) | > 100 µM (inactive) |
| CCOCC(=O)N[C@H]1CCc2cc(OC(=O)COCC)c(OC)c(OC)c2-c2ccc(SC)c(=O)cc21 | 0.036 µM (active) | 0.0355 µM (active) | 0.0655 µM (active) | 0.0222 µM (active) | 0.00473 µM (active) | 0.0248 µM (active) | 0.0126 µM (active) | 0.00195 µM (active) | 0.0022 µM (active) | 0.0138 µM (active) | 0.0301 µM (active) | 1.87 µM (inactive) | 0.0172 µM (active) | 0.0143 µM (active) | 0.00478 µM (active) | 0.00867 µM (active) | 0.0625 µM (active) | 0.885 µM (active) | 0.0461 µM (active) | 0.0102 µM (active) |
| Cc1c(N)nc(C2CC(=O)N2CC(N)C(N)=O)nc1C(=O)NC(C(=O)NC(C)C(O)C(C)C(=O)NC(C(=O)NCCc1nc(-c2nc(C(=O)NCCNCC(C)O)cs2)cs1)C(C)O)C(OC1OC(CO)C(O)C(O)C1OC1OC(CO)C(O)C(OC(N)=O)C1O)c1c[nH]cn1 (stereo not given) | 33.2 µM (inactive) | 3.28 µM (inactive) | < 0.0249 µM (active) | 7.87 µM (inactive) | 5.75 µM (inactive) | 0.295 µM (active) | 20.1 µM (inactive) | 3.1 µM (inactive) | > 50 µM (inactive) | 0.336 µM (active) | 0.0223 µM (active) | 31 µM (inactive) | < 0.0295 µM (active) | 43.2 µM (inactive) | 0.809 µM (active) | 8.41 µM (inactive) | 1.45 µM (inactive) | 5.38 µM (inactive) | 0.344 µM (active) | 0.441 µM (active) |
| CN(CCCCCl)P(=O)(OCc1ccc([N+](=O)[O-])o1)OC[C@H]1O[C@@H](n2cc(F)c(=O)[nH]c2=O)C[C@@H]1O (stereo not given in full) | 0.883 µM (active) | 0.0301 µM (active) | 0.0365 µM (active) | 0.569 µM (active) | 0.766 µM (active) | 0.64 µM (active) | 12.4 µM (inactive) | 5.85 µM (inactive) | 7.03 µM (inactive) | 3.25 µM (inactive) | 3.59 µM (inactive) | 0.0658 µM (active) | < 0.01 µM (active) | 21.2 µM (inactive) | 0.849 µM (active) | 0.372 µM (active) | 0.107 µM (active) | 1.85 µM (inactive) | 0.102 µM (active) | 0.437 µM (active) |

From ChEMBL document CHEMBL1201862, “PubChem BioAssay data set” (2004)
